Measurements: ChEMBL document CHEMBL4507268 (2021)

Legend:
Details in all cases: Compound concentration 1.0 uM
[1] = biological target: T1, Serine/threonine-protein kinase BRSK2 (Homo sapiens) (UniProt Q8IWQ3)
T1 sequence (whole entry): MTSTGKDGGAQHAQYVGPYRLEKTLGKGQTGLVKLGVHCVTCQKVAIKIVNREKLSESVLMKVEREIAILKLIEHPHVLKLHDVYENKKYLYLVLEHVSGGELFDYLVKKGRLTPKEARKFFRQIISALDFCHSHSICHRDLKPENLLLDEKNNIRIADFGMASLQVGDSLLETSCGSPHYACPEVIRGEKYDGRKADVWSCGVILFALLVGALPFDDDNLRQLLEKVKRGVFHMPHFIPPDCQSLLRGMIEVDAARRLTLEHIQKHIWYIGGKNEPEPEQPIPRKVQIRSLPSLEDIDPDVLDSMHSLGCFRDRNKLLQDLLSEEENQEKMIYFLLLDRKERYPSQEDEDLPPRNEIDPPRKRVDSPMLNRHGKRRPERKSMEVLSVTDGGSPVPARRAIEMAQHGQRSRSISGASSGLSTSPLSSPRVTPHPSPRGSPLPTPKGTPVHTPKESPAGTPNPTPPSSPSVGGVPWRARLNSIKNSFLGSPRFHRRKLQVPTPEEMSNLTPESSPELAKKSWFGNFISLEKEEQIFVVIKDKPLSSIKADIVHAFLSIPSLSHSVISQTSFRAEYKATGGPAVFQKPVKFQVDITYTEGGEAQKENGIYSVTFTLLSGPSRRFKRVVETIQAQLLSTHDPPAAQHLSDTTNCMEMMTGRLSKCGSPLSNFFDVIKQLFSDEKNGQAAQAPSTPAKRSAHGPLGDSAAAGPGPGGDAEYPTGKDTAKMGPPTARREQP

[2] = biological target: Tyrosine-protein kinase BTK (Homo sapiens) (UniProt Q06187)
[3] = biological target: Tyrosine-protein kinase Fyn (Homo sapiens) (UniProt P06241)
[4] = biological target: Homeodomain-interacting protein kinase 2 (Homo sapiens) (UniProt Q9H2X6)
[5] = biological target: Mitogen-activated protein kinase 8 (Homo sapiens) (UniProt P45983)
[6] = biological target: T2, Dual specificity mitogen-activated protein kinase kinase 3 (Homo sapiens) (UniProt P46734)
T2 sequence (whole entry): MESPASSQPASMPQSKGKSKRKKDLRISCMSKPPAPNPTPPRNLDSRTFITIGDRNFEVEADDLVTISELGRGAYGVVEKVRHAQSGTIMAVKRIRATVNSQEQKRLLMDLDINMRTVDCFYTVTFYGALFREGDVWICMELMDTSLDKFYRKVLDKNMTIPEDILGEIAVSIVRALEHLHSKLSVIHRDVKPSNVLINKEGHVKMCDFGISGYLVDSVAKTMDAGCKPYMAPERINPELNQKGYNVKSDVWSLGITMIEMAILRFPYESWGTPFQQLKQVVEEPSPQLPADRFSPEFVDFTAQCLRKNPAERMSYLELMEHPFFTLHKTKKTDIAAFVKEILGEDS

[7] = biological target: Serine/threonine-protein kinase N2 (Homo sapiens) (UniProt Q16513)
[8] = biological target: Tyrosine-protein kinase FRK (Homo sapiens) (UniProt P42685)
[9] = biological target: SRSF protein kinase 1 (Homo sapiens) (UniProt Q96SB4)
[10] = biological target: T3, Serine/threonine-protein kinase TAO2 (Homo sapiens) (UniProt Q9UL54)
T3 sequence (whole entry): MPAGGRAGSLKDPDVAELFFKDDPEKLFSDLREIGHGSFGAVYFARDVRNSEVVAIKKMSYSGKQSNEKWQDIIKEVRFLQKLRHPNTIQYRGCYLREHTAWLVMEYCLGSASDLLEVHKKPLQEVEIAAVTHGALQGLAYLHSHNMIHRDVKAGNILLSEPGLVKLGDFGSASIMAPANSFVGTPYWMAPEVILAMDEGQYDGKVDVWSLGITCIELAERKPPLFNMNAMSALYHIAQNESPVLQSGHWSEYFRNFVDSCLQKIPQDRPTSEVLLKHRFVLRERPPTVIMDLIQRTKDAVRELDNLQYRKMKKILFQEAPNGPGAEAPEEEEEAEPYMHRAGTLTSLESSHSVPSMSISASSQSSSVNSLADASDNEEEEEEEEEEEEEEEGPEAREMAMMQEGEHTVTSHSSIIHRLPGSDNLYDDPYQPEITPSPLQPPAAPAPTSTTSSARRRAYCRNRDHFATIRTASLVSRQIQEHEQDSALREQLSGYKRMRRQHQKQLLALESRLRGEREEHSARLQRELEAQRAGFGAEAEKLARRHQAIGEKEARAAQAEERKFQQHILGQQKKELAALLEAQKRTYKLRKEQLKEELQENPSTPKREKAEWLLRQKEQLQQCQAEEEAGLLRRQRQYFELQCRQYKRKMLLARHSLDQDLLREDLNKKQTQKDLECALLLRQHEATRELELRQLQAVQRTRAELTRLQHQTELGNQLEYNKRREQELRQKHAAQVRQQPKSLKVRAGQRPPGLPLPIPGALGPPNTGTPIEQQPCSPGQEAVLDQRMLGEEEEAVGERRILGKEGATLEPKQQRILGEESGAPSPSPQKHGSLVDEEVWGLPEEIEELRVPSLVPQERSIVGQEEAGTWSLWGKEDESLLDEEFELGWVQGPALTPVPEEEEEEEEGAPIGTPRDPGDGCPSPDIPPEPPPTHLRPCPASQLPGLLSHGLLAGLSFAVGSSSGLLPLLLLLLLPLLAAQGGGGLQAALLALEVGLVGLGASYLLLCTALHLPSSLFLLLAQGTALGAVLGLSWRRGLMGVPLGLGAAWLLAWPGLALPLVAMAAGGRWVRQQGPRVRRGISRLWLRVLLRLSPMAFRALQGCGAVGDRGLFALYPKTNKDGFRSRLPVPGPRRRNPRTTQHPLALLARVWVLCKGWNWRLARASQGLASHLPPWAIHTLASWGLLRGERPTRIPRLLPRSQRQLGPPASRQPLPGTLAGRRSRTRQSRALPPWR

[11] = biological target: Serine/threonine-protein kinase tousled-like 2 (Homo sapiens) (UniProt Q86UE8)
[12] = biological target: Non-receptor tyrosine-protein kinase TYK2 (Homo sapiens) (UniProt P29597)

Measured: % residual kinase activity

Sequence of SRSF protein kinase 1 (Homo sapiens) (Q96SB4 whole entry): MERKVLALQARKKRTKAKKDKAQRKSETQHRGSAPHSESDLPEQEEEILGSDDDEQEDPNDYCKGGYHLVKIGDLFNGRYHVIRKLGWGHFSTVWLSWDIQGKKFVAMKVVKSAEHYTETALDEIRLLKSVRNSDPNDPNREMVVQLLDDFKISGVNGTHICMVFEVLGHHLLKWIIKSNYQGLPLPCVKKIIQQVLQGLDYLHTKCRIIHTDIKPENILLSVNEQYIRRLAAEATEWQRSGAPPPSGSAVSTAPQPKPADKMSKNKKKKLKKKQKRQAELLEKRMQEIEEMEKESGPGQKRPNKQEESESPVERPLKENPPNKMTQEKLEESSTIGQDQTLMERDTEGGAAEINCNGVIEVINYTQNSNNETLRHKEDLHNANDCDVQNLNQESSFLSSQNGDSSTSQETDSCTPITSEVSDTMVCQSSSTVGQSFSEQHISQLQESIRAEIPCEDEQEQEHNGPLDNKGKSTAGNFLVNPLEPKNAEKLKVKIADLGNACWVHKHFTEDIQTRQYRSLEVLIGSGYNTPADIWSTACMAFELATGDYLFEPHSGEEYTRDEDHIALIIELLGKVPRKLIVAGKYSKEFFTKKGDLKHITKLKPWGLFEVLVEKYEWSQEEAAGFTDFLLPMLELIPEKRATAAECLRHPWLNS
Sequence of Non-receptor tyrosine-protein kinase TYK2 (Homo sapiens) (P29597 whole entry): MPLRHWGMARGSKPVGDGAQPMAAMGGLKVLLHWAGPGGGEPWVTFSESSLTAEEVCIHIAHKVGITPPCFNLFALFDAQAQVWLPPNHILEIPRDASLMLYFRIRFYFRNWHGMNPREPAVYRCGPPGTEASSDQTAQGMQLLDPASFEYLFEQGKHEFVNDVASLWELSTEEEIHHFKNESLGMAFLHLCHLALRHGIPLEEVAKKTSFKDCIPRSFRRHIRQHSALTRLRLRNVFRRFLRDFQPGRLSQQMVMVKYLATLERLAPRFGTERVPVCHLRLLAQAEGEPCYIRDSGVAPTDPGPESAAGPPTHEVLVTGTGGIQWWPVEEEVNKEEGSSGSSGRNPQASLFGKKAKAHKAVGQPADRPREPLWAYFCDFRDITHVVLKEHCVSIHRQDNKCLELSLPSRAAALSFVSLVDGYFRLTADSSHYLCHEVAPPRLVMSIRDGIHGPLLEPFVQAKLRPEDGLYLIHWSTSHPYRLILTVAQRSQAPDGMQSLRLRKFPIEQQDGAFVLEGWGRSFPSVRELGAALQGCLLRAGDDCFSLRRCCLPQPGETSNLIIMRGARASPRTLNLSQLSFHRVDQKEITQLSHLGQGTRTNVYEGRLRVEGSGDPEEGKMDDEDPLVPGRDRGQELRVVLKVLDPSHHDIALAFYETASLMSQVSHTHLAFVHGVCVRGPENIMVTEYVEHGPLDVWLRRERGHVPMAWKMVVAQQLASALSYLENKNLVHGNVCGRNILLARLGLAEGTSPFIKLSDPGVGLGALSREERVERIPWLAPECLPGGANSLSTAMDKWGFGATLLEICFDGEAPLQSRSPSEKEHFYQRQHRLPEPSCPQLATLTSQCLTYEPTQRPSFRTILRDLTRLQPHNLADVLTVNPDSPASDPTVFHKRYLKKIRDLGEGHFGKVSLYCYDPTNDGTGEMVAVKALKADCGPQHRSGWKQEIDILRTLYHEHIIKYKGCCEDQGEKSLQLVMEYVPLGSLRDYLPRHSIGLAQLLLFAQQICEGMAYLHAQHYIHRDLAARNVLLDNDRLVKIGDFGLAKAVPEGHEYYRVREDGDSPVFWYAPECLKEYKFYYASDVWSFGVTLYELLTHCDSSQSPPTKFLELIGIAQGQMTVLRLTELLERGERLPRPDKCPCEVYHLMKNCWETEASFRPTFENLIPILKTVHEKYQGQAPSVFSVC
Sequence of Serine/threonine-protein kinase N2 (Homo sapiens) (Q16513 whole entry, looked up): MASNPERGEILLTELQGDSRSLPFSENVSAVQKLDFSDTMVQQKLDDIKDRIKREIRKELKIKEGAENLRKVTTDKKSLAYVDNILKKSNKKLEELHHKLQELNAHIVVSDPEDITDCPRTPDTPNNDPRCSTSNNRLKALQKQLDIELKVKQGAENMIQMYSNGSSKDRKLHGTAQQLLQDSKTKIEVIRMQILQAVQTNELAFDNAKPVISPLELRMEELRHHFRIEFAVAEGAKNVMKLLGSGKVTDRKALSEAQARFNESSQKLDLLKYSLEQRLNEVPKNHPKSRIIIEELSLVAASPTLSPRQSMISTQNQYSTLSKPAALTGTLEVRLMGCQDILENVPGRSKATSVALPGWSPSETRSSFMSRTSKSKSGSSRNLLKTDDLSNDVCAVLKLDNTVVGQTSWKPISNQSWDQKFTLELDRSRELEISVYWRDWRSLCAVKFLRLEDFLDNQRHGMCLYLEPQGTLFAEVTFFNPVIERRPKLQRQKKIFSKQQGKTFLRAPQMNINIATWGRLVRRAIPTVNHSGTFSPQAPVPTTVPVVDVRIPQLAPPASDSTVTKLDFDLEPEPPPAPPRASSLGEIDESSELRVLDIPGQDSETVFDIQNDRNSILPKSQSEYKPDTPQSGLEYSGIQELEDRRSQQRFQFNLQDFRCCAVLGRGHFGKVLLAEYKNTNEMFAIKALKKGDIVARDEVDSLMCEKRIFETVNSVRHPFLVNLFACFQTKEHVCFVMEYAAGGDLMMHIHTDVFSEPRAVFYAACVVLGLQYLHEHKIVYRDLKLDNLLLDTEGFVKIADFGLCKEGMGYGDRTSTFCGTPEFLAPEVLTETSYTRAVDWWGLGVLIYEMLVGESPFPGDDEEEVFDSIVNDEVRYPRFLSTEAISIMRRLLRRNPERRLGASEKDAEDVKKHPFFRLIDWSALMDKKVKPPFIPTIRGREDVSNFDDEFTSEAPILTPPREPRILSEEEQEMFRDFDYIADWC
Sequence of Mitogen-activated protein kinase 8 (Homo sapiens) (P45983 whole entry): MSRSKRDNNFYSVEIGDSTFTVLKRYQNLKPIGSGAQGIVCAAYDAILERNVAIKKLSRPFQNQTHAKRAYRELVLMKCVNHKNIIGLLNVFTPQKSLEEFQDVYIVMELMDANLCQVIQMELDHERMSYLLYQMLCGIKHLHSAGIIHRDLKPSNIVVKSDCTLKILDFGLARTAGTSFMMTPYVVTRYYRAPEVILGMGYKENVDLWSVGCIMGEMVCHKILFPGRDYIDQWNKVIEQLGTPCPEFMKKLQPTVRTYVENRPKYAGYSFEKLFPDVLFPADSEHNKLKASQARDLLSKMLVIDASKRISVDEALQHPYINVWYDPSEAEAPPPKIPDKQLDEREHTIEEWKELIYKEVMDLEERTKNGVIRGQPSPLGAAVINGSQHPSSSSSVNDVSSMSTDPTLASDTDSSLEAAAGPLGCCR
Sequence of Tyrosine-protein kinase BTK (Homo sapiens) (Q06187 whole entry): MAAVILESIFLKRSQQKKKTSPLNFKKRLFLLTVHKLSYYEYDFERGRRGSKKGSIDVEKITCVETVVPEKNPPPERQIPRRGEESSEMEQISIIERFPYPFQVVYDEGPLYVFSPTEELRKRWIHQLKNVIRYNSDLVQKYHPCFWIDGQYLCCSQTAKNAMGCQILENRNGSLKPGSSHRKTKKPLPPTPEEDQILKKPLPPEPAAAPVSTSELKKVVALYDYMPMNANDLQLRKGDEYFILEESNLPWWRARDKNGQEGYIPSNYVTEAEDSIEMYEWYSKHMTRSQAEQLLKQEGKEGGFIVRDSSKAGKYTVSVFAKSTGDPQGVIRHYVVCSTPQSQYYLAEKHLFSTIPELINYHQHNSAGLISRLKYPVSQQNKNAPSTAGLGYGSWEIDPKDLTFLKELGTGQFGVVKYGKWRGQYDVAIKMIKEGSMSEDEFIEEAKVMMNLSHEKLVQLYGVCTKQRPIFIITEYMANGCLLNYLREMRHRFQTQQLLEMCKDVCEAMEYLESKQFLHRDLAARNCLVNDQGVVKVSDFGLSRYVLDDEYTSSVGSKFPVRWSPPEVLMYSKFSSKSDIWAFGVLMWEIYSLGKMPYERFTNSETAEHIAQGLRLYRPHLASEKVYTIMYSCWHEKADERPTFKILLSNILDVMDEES
Sequence of Tyrosine-protein kinase FRK (Homo sapiens) (P42685 whole entry): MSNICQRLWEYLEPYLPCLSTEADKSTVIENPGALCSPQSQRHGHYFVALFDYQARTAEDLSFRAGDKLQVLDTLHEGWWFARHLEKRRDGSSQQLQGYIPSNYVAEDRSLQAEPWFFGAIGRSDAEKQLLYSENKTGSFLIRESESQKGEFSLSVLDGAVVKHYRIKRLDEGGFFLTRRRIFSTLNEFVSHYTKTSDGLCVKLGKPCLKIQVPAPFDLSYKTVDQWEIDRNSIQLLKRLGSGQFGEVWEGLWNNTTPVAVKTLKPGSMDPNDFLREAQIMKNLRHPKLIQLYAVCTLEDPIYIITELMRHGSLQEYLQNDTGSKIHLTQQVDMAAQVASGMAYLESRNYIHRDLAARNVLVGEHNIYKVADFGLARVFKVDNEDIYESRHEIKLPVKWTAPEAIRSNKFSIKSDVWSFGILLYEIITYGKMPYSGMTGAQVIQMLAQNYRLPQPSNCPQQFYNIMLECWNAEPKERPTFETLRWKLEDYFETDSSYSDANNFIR
Sequence of Tyrosine-protein kinase Fyn (Homo sapiens) (P06241 2-537 limits assumed): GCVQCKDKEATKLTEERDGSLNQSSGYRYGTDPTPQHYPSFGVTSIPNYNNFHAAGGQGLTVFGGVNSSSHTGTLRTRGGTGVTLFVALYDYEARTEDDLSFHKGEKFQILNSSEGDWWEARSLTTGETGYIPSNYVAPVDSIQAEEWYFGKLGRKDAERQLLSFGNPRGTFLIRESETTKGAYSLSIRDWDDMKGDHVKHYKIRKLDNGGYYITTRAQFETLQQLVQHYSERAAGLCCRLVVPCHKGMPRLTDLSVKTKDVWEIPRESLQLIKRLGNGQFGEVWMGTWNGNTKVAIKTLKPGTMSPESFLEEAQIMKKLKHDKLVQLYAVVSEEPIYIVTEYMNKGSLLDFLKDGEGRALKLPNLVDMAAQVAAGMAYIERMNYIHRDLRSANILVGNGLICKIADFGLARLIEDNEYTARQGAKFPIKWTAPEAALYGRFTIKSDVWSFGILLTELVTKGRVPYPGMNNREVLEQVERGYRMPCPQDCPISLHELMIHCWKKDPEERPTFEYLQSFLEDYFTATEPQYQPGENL

CN1CCN(c2cnc3c(C4CCN(C(=O)c5ccc(OC(F)(F)F)cc5N)CC4)ncnc3c2)CC1 [BAY-885]
inactive: [1] 102% | [2] 98% | [3] 129% | [4] 107% | [5] 104% | [6] 92% | [7] 104% | [8] 109% | [9] 114% | [10] 113% | [11] 98% | [12] 110%
